Laboratory results from the supplement of paper PMC9663587.

What was measured:
[1] = tested on: MDAMB157; experiment: GRmax, 72 h; higher = less effect;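 also: breast cell lines in 384-well plates, nine doses across a 10^4 range, Dye Drop imaging of viable cells vs DMSO and time-zero plates, GR 0 means no net growth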
[2] = tested on: CAL851; experiment: GRmax, 72 h; higher = less effect;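 also: breast cell lines in 384-well plates, nine doses across a 10^4 range, Dye Drop imaging of viable cells vs DMSO and time-zero plates, GR 0 means no net growth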
[3] = tested on: MDAMB468; experiment: GRmax, 72 h; higher = less effect;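 also: breast cell lines in 384-well plates, nine doses across a 10^4 range, Dye Drop imaging of viable cells vs DMSO and time-zero plates, GR 0 means no net growth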
[4] = tested on: HCC1937; experiment: GRmax, 72 h; higher = less effect;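 also: breast cell lines in 384-well plates, nine doses across a 10^4 range, Dye Drop imaging of viable cells vs DMSO and time-zero plates, GR 0 means no net growth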
[5] = tested on: PDX1258; experiment: GRmax, 72 h; higher = less effect
[6] = tested on: MDAMB453; experiment: GRmax, 72 h; higher = less effect
[7] = tested on: HCC1143; experiment: GRmax, 72 h; higher = less effect
[8] = tested on: CAL120; experiment: GRmax, 72 h; higher = less effect
[9] = tested on: HCC1395; experiment: GRmax, 72 h; higher = less effect
[10] = tested on: SKBR3; experiment: GRmax, 72 h; higher = less effect
[11] = tested on: HCC1419; experiment: GRmax, 72 h; higher = less effect
[12] = tested on: HCC1428; experiment: GRmax, 72 h; higher = less effect
[13] = tested on: BT20; experiment: GRmax, 72 h; higher = less effect
[14] = tested on: MCF10A; experiment: GRmax, 72 h; higher = less effect
[15] = tested on: HCC1954; experiment: GRmax, 72 h; higher = less effect
[16] = tested on: HCC38; experiment: GRmax, 72 h; higher = less effect
[17] = tested on: BT549; experiment: GRmax, 72 h; higher = less effect
[18] = tested on: HCC1806; experiment: GRmax, 72 h; higher = less effect
[19] = tested on: T47D; experiment: GRmax, 72 h; higher = less effect
[20] = tested on: PDXHCI002; experiment: GRmax, 72 h; higher = less effect
[21] = tested on: CAL51; experiment: GRmax, 72 h; higher = less effect
[22] = tested on: HCC1500; experiment: GRmax, 72 h; higher = less effect
[23] = tested on: SUM1315; experiment: GRmax, 72 h; higher = less effect
[24] = tested on: MCF7; experiment: GRmax, 72 h; higher = less effect
[25] = tested on: SUM159; experiment: GRmax, 72 h; higher = less effect
[26] = tested on: MDAMB436; experiment: GRmax, 72 h; higher = less effect
[27] = tested on: HTERT_HME1; experiment: GRmax, 72 h; higher = less effect
[28] = tested on: PDX1328; experiment: GRmax, 72 h; higher = less effect
[29] = tested on: HS578T; experiment: GRmax, 72 h; higher = less effect
[30] = tested on: CAMA1; experiment: GRmax, 72 h; higher = less effect
[31] = tested on: SUM149; experiment: GRmax, 72 h; higher = less effect
[32] = tested on: HCC70; experiment: GRmax, 72 h; higher = less effect
[33] = tested on: MDAMB231; experiment: GRmax, 72 h; higher = less effect
[34] = tested on: MDAMB361; experiment: GRmax, 72 h; higher = less effect
[35] = tested on: MDAMB157; experiment: area over the GR curve, 72 h; higher = more effect;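 also: Dye Drop or Deep Dye Drop imaging of viable cells in 384-well plates (Hoechst nuclei, LIVE/DEAD dye), nine half-log doses, GR normalized to DMSO controls and time-zero plates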
[36] = tested on: CAL851; experiment: area over the GR curve, 72 h; higher = more effect;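 also: Dye Drop or Deep Dye Drop imaging of viable cells in 384-well plates (Hoechst nuclei, LIVE/DEAD dye), nine half-log doses, GR normalized to DMSO controls and time-zero plates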
[37] = tested on: MDAMB468; experiment: area over the GR curve, 72 h; higher = more effect;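 also: Dye Drop or Deep Dye Drop imaging of viable cells in 384-well plates (Hoechst nuclei, LIVE/DEAD dye), nine half-log doses, GR normalized to DMSO controls and time-zero plates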
[38] = tested on: HCC1937; experiment: area over the GR curve, 72 h; higher = more effect;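 also: Dye Drop or Deep Dye Drop imaging of viable cells in 384-well plates (Hoechst nuclei, LIVE/DEAD dye), nine half-log doses, GR normalized to DMSO controls and time-zero plates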
[39] = tested on: PDX1258; experiment: area over the GR curve, 72 h; higher = more effect
[40] = tested on: MDAMB453; experiment: area over the GR curve, 72 h; higher = more effect
[41] = tested on: HCC1143; experiment: area over the GR curve, 72 h; higher = more effect
[42] = tested on: CAL120; experiment: area over the GR curve, 72 h; higher = more effect
[43] = tested on: HCC1395; experiment: area over the GR curve, 72 h; higher = more effect
[44] = tested on: SKBR3; experiment: area over the GR curve, 72 h; higher = more effect
[45] = tested on: HCC1419; experiment: area over the GR curve, 72 h; higher = more effect
[46] = tested on: HCC1428; experiment: area over the GR curve, 72 h; higher = more effect
[47] = tested on: BT20; experiment: area over the GR curve, 72 h; higher = more effect
[48] = tested on: MCF10A; experiment: area over the GR curve, 72 h; higher = more effect
[49] = tested on: HCC1954; experiment: area over the GR curve, 72 h; higher = more effect
[50] = tested on: HCC38; experiment: area over the GR curve, 72 h; higher = more effect
[51] = tested on: BT549; experiment: area over the GR curve, 72 h; higher = more effect
[52] = tested on: HCC1806; experiment: area over the GR curve, 72 h; higher = more effect
[53] = tested on: T47D; experiment: area over the GR curve, 72 h; higher = more effect
[54] = tested on: PDXHCI002; experiment: area over the GR curve, 72 h; higher = more effect
[55] = tested on: CAL51; experiment: area over the GR curve, 72 h; higher = more effect
[56] = tested on: HCC1500; experiment: area over the GR curve, 72 h; higher = more effect
[57] = tested on: SUM1315; experiment: area over the GR curve, 72 h; higher = more effect
[58] = tested on: MCF7; experiment: area over the GR curve, 72 h; higher = more effect
[59] = tested on: SUM159; experiment: area over the GR curve, 72 h; higher = more effect
[60] = tested on: MDAMB436; experiment: area over the GR curve, 72 h; higher = more effect
[61] = tested on: HTERT_HME1; experiment: area over the GR curve, 72 h; higher = more effect
[62] = tested on: PDX1328; experiment: area over the GR curve, 72 h; higher = more effect
[63] = tested on: HS578T; experiment: area over the GR curve, 72 h; higher = more effect
[64] = tested on: CAMA1; experiment: area over the GR curve, 72 h; higher = more effect
[65] = tested on: SUM149; experiment: area over the GR curve, 72 h; higher = more effect
[66] = tested on: HCC70; experiment: area over the GR curve, 72 h; higher = more effect
[67] = tested on: MDAMB231; experiment: area over the GR curve, 72 h; higher = more effect
[68] = tested on: MDAMB361; experiment: area over the GR curve, 72 h; higher = more effect

**Q.** What does the source list for `N.N.[Cl][Pt][Cl]` [Cisplatin] (max 10 µM)?
**A.** GRmax, 72 h [1]: 0.189 GR; GRmax, 72 h [2]: 0.018 GR; GRmax, 72 h [3]: -0.287 GR; GRmax, 72 h [4]: 0.006 GR; GRmax, 72 h [5]: 0.318 GR; GRmax, 72 h [6]: 0.133 GR; GRmax, 72 h [7]: 0.0754 GR; GRmax, 72 h [8]: 0.188 GR; GRmax, 72 h [9]: -0.222 GR; GRmax, 72 h [10]: 0.249 GR; GRmax, 72 h [11]: 0.0949 GR; GRmax, 72 h [12]: 0.122 GR; GRmax, 72 h [13]: -0.337 GR; GRmax, 72 h [14]: 0.379 GR; GRmax, 72 h [15]: -0.0741 GR; GRmax, 72 h [16]: -0.103 GR; GRmax, 72 h [17]: 0.0674 GR; GRmax, 72 h [18]: -0.365 GR; GRmax, 72 h [19]: 0.102 GR; GRmax, 72 h [20]: -0.0985 GR; GRmax, 72 h [21]: -0.0329 GR; GRmax, 72 h [22]: 0.207 GR; GRmax, 72 h [23]: 0.203 GR; GRmax, 72 h [24]: 0.475 GR; GRmax, 72 h [25]: 0.0896 GR; GRmax, 72 h [26]: -0.0204 GR; GRmax, 72 h [27]: -0.218 GR; GRmax, 72 h [28]: -0.422 GR; GRmax, 72 h [29]: 0.0125 GR; GRmax, 72 h [30]: -0.0042 GR; GRmax, 72 h [31]: -0.229 GR; GRmax, 72 h [32]: -0.683 GR; GRmax, 72 h [33]: 0.272 GR; GRmax, 72 h [34]: -0.35 GR; area over the GR curve [35]: 0.117 GR; area over the GR curve [36]: 0.221 GR; area over the GR curve [37]: 0.287 GR; area over the GR curve [38]: 0.327 GR; area over the GR curve [39]: 0.155 GR; area over the GR curve [40]: 0.0713 GR; area over the GR curve [41]: 0.303 GR; area over the GR curve [42]: 0.182 GR; area over the GR curve [43]: 0.386 GR; area over the GR curve [44]: 0.0978 GR; area over the GR curve [45]: 0.223 GR; area over the GR curve [46]: 0.221 GR; area over the GR curve [47]: 0.334 GR; area over the GR curve [48]: 0.0952 GR; area over the GR curve [49]: 0.275 GR; area over the GR curve [50]: 0.257 GR; area over the GR curve [51]: 0.283 GR; area over the GR curve [52]: 0.317 GR; area over the GR curve [53]: 0.214 GR; area over the GR curve [54]: 0.201 GR; area over the GR curve [55]: 0.214 GR; area over the GR curve [56]: 0.0866 GR; area over the GR curve [57]: 0.296 GR; area over the GR curve [58]: 0.0631 GR; area over the GR curve [59]: 0.137 GR; area over the GR curve [60]: 0.36 GR; area over the GR curve [61]: 0.297 GR; area over the GR curve [62]: 0.287 GR; area over the GR curve [63]: 0.235 GR; area over the GR curve [64]: 0.328 GR; area over the GR curve [65]: 0.355 GR; area over the GR curve [66]: 0.253 GR; area over the GR curve [67]: 0.15 GR; area over the GR curve [68]: 0.177 GR
